Like-named read-outs stand apart in the source and are kept apart here.
Molecular target: T1, hAR (human androgen receptor) (Homo sapiens, UniProt P10275)
T1 construct: made in house; host or cells: baculovirus/Sf9 insect cells (extract)
T1 sequence (P10275 1-920): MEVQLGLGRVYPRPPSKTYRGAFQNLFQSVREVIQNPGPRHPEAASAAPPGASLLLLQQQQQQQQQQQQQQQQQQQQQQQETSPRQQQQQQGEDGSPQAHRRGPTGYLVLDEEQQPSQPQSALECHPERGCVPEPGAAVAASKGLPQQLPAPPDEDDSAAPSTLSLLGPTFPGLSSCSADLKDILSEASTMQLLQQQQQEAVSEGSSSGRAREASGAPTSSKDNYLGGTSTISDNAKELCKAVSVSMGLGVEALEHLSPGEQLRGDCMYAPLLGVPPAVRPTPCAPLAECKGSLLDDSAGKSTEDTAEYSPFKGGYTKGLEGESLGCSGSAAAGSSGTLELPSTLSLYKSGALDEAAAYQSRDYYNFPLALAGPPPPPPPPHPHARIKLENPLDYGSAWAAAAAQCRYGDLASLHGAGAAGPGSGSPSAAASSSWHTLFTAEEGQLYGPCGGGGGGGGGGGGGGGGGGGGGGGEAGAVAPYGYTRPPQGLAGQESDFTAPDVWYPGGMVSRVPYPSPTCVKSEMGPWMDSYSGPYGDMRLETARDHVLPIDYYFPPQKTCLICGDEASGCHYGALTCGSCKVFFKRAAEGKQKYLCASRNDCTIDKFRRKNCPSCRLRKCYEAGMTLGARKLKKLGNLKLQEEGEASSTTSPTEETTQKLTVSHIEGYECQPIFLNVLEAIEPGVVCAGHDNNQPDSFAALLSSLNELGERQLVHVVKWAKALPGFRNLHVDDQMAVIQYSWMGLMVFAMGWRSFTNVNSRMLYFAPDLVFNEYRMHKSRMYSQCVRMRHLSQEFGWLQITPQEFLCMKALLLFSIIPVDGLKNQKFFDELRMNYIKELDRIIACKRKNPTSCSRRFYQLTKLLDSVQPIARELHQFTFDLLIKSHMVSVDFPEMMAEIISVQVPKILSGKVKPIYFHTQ
Experiment: Competitive binding analysis on hAR extracts with 3H-DHT tracer
Protocol: The compounds of Formula I have affinity for the androgen receptor. […] The description below describes how the assay was carried out.
Competitive binding analysis was performed on baculovirus/Sf9 generated hAR extracts in the presence or absence of different concentrations of test agent and a fixed concentration of ^3H-dihydrotestosterone (^3H-DHT) as tracer. This binding assay method is a modification of a protocol previously described (Liao S., et. al. J. Steroid Biochem. 20:11-17 1984). Briefly, progressively decreasing concentrations of compounds are incubated in the presence of hAR extract (Chang et al. P.N.A.S. Vol. 89, pp. […], 1992), hydroxylapatite, and 1 nM ^3H-DHT for one hour at 4° C. Subsequently, the binding reactions are washed three times to completely remove excess unbound ^3H-DHT. hAR bound ^3H-DHT levels are determined in the presence of compounds (i.e. competitive binding) and compared to levels bound when no competitor is present (i.e. maximum binding). Compound binding affinity to the hAR is expressed as the concentration of compound at which one half of the maximum binding is inhibited. Table II below provides the results that were obtained for selected compounds (reported data is the mean of multiple tests as shown below)

COCC(COc1ccccc1)Oc1ccc(C#N)c(C(F)(F)F)c1 (stereo not drawn) [Example 27, 4-(1-Methoxymethyl-2-phenoxy-ethoxy)-2-trifluoromethyl-benzonitrile]
IC50: 5 nM

N#Cc1ccc(OC(CO)COc2ccccc2)cc1C(F)(F)F (stereo not drawn) [Example 28, 4-(1-Hydroxymethyl-2-phenoxy-ethoxy)-2-trifluoromethyl-benzonitrile]
IC50: 81 nM

N#Cc1ccc(OCCCCCOc2ccc(C#N)c(C(F)(F)F)c2)cc1C(F)(F)F [Example 24]
IC50 (baculovirus/Sf9 hAR extract, 1 nM 3H-DHT, one hour at 4° C, mean of multiple tests, read-out: AR Binding IC50): 128 nM

Reference: US7473711B2, “Androgen modulators” (Pfizer Inc., priority 2004, dated 2009)
